Measured values published in ChEMBL document CHEMBL3991601, “The target landscape of clinical kinase drugs” (Science, 2017).
Structures can show the parent of a compound that is named as a salt. The source made the active and inactive calls.

Legend:
[1] = target: Maternal embryonic leucine zipper kinase (Homo sapiens, UniProt Q14680)
Heme oxygenase 2 = target: T1, Heme oxygenase 2 (Homo sapiens, UniProt P30519)
T1 sequence (P30519 whole entry): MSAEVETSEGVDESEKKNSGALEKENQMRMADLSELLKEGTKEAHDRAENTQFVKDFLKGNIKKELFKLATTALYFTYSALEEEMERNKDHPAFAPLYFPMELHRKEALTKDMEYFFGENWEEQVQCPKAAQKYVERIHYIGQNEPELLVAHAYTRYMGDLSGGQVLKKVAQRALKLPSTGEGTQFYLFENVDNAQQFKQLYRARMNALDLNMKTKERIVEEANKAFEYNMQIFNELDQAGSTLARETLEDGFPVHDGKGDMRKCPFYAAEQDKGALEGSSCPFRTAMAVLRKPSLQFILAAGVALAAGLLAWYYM

Glycine--tRNA ligase = target: T2, Glycine--tRNA ligase (Homo sapiens, UniProt P41250)
T2 sequence (P41250 whole entry): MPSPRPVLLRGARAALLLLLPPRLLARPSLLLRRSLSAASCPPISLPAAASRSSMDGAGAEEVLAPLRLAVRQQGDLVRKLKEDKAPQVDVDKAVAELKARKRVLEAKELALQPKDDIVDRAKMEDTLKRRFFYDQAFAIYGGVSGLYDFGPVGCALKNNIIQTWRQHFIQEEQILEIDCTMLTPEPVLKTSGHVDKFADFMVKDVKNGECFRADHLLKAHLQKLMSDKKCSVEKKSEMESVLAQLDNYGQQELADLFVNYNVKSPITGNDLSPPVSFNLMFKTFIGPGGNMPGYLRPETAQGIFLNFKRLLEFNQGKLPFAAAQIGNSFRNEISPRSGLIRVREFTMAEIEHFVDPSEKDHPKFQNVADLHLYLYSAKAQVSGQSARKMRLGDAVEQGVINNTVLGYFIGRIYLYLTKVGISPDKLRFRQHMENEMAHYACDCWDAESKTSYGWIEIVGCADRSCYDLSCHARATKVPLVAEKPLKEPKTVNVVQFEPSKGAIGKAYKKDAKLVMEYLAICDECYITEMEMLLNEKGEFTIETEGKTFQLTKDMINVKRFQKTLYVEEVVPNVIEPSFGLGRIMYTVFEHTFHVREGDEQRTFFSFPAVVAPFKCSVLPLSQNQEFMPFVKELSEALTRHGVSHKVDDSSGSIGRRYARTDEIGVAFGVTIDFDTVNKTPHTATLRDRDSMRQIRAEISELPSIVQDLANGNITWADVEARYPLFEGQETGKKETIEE

[2] = target: Protein-tyrosine kinase 2-beta (Homo sapiens, UniProt Q14289)
Chain of Protein-tyrosine kinase 2-beta (Q14289 whole entry): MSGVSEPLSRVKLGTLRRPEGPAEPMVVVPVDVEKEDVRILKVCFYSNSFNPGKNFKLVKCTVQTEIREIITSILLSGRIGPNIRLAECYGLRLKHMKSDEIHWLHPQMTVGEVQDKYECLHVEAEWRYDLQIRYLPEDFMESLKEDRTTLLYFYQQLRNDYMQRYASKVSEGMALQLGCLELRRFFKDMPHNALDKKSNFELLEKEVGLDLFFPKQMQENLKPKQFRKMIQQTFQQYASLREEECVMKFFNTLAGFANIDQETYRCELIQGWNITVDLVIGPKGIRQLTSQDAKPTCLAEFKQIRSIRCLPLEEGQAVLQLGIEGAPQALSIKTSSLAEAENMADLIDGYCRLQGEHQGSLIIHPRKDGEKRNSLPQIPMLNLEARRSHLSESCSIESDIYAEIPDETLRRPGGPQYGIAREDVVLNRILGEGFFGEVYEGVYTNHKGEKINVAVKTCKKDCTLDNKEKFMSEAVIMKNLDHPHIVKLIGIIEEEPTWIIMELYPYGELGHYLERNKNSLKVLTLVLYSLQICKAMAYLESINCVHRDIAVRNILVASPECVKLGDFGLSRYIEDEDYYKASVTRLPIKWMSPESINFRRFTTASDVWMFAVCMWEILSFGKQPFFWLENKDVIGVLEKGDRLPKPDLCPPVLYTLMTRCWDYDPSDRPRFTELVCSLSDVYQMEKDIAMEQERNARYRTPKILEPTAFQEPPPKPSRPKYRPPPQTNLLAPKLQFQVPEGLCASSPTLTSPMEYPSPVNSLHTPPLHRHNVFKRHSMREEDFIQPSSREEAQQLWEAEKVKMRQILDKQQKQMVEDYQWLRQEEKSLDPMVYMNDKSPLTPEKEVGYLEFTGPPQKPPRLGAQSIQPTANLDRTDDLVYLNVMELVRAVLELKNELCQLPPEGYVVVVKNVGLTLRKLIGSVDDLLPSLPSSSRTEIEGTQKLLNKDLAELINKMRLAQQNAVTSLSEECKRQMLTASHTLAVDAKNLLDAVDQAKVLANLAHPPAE

[3] = target: T3, Signal recognition particle receptor subunit alpha (Homo sapiens, UniProt P08240)
T3 sequence (P08240 whole entry): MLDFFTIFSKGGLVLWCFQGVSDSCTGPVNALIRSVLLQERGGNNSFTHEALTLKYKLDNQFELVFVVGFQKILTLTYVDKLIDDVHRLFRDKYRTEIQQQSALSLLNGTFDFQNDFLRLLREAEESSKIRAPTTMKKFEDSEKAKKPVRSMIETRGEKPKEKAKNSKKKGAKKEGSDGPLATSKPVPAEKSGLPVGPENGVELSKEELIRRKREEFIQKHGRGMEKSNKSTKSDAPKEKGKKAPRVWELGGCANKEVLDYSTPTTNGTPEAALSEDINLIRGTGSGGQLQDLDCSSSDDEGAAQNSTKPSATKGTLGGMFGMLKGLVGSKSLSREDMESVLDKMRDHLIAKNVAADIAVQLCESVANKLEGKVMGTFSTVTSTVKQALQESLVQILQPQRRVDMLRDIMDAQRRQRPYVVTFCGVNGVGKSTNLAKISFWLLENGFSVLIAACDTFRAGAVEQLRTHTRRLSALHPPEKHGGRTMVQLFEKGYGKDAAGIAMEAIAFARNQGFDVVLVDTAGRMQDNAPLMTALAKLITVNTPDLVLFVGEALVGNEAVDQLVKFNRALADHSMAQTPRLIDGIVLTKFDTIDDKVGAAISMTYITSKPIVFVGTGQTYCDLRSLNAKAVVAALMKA

[4] = target: T4, Serine/threonine-protein kinase A-Raf (Homo sapiens, UniProt P10398)
T4 sequence (P10398 whole entry): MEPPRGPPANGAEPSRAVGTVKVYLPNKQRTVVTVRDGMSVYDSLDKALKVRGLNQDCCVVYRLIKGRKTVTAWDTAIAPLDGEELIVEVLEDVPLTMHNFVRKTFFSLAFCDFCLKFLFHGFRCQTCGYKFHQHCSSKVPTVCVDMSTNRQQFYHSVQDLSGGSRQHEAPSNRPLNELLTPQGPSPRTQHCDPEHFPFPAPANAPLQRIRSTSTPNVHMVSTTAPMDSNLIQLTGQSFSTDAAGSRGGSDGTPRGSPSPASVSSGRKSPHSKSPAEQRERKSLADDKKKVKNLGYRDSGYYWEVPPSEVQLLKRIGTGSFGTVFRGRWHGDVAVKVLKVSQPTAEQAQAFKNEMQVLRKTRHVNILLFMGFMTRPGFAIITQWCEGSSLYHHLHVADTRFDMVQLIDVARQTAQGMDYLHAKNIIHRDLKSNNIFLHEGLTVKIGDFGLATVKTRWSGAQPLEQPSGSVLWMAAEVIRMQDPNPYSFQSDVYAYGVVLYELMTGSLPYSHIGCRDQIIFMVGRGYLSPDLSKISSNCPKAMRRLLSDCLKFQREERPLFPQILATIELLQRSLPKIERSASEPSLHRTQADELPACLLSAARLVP
Also: in the data inactive means no Kd found up to 30 µM.

Chain of Maternal embryonic leucine zipper kinase (Q14680 whole entry): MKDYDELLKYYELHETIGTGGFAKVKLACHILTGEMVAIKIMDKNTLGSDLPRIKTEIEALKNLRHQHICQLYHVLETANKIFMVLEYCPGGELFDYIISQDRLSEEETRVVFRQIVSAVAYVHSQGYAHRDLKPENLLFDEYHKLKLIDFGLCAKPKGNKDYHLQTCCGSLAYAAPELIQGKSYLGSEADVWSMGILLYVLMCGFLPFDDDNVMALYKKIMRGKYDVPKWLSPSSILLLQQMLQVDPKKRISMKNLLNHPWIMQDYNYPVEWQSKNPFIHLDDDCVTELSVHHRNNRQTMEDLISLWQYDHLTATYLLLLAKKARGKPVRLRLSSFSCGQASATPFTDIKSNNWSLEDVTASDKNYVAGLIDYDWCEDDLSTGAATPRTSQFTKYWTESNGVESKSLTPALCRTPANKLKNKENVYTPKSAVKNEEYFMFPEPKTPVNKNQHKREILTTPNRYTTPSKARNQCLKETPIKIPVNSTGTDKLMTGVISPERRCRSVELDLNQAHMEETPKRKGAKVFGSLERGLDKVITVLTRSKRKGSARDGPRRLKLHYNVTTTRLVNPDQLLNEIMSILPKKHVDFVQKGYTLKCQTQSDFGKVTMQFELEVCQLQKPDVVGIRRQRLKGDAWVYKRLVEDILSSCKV

Kd [1] | Kd (Heme oxygenase 2) | Kd (Glycine--tRNA ligase) | Kd [2] | Kd [3] | Kd [4] | SMILES
> 30 µM (inactive) | > 30 µM (inactive) | > 30 µM (inactive) | > 30 µM (inactive) | > 30 µM (inactive) | > 30 µM (inactive) | C[C@@H](N)c1ccc(C(=O)Nc2ccnc3[nH]ccc23)cc1 [Y-39983]
> 30 µM (inactive) | > 30 µM (inactive) | > 30 µM (inactive) | 0.118 µM (active) | > 30 µM (inactive) | > 30 µM (inactive) | CC(C)c1cc(CNc2nc(Nc3cc(C4CC4)[nH]n3)cc(N3CCN(C)CC3)n2)on1 [XL-228]
> 30 µM (inactive) | > 30 µM (inactive) | > 30 µM (inactive) | > 30 µM (inactive) | > 30 µM (inactive) | > 30 µM (inactive) | COc1cc2ncnc(Oc3cccc(NC(=O)Nc4cc(C(C)(C)C(F)(F)F)on4)c3)c2cc1OC [CEP-32496]
> 30 µM (inactive) | > 30 µM (inactive) | > 30 µM (inactive) | > 30 µM (inactive) | > 30 µM (inactive) | > 30 µM (inactive) | Cc1cc(C(=O)NOCCO)c(Nc2ccc(I)cc2F)n(C)c1=O [AZD-8330]
> 30 µM (inactive) | > 30 µM (inactive) | > 30 µM (inactive) | > 30 µM (inactive) | > 30 µM (inactive) | > 30 µM (inactive) | C#Cc1cccc(Nc2ncnc3cc(OC)c(OCCCCCCC(=O)NO)cc23)c1 [CUDC-101]
> 30 µM (inactive) | > 30 µM (inactive) | > 30 µM (inactive) | > 30 µM (inactive) | > 30 µM (inactive) | > 30 µM (inactive) | COCC(=O)NC/C=C/c1ccc2ncnc(Nc3ccc(Oc4ccc(C)nc4)c(C)c3)c2c1 [CP-724714]

Second part, the compound before the results:

SMILES | Kd [1] | Kd (Heme oxygenase 2) | Kd (Glycine--tRNA ligase) | Kd [2] | Kd [3] | Kd [4]
CN1C/C=C/CCOc2cccc(c2)-c2ccnc(n2)Nc2cccc(c2)C1 [ZOTIRACICLIB] | > 30 µM (inactive) | > 30 µM (inactive) | > 30 µM (inactive) | > 30 µM (inactive) | > 30 µM (inactive) | > 30 µM (inactive)
Cc1cc(Nc2ncc(Cl)c(Nc3ccccc3S(=O)(=O)C(C)C)n2)c(OC(C)C)cc1C1CCNCC1 [CERITINIB] | > 30 µM (inactive) | > 30 µM (inactive) | > 30 µM (inactive) | 18.4 µM (active) | > 30 µM (inactive) | > 30 µM (inactive)
CC(C)(C)c1nc(-c2cccc(NS(=O)(=O)c3c(F)cccc3F)c2F)c(-c2ccnc(N)n2)s1 [DABRAFENIB] | 1.82 µM (active) | > 30 µM (inactive) | > 30 µM (inactive) | > 30 µM (inactive) | > 30 µM (inactive) | 0.047 µM (active)
CO[C@H]1C[C@@H]2CC[C@@H](C)[C@@](O)(O2)C(=O)C(=O)N2CCCC[C@H]2C(=O)O[C@H]([C@H](C)C[C@@H]2CC[C@@H](O)[C@H](OC)C2)CC(=O)[C@H](C)/C=C(\C)[C@@H](O)[C@@H](OC)C(=O)[C@H](C)C[C@H](C)/C=C/C=C/C=C/1C [SIROLIMUS] | > 30 µM (inactive) | > 30 µM (inactive) | > 30 µM (inactive) | > 30 µM (inactive) | > 30 µM (inactive) | > 30 µM (inactive)
O=C(Nc1cc(C(F)(F)F)cc(C(F)(F)F)c1)c1cc(Cl)ccc1O [IMD-0354] | > 30 µM (inactive) | > 30 µM (inactive) | > 30 µM (inactive) | > 30 µM (inactive) | > 30 µM (inactive) | > 30 µM (inactive)
Cc1cc(Nc2ncnc3ccc(NC4=NC(C)(C)CO4)cc23)ccc1Oc1ccn2ncnc2c1 [TUCATINIB] | > 30 µM (inactive) | > 30 µM (inactive) | > 30 µM (inactive) | > 30 µM (inactive) | > 30 µM (inactive) | > 30 µM (inactive)
O=C(Cc1ccc(-c2ccc(OCCN3CCOCC3)cc2)cn1)NCc1ccccc1 [TIRBANIBULIN] | > 30 µM (inactive) | > 30 µM (inactive) | > 30 µM (inactive) | > 30 µM (inactive) | > 30 µM (inactive) | > 30 µM (inactive)
CCS(=O)(=O)N1CCN(c2ccc(Nc3ncc(C(N)=O)c(NC4CC4)n3)cc2)CC1 [Cerdulatinib Hydrochloride] | > 30 µM (inactive) | > 30 µM (inactive) | > 30 µM (inactive) | > 30 µM (inactive) | > 30 µM (inactive) | > 30 µM (inactive)
Cc1nc2cc(-c3nn(C(C)C)c4ncnc(N)c34)ccc2o1 | 8.21 µM (active) | > 30 µM (inactive) | > 30 µM (inactive) | > 30 µM (inactive) | > 30 µM (inactive) | > 30 µM (inactive)
O=C1NC(=O)[C@@H](c2cn3c4c(cccc24)CCC3)[C@@H]1c1c[nH]c2ccccc12 [TIVANTINIB] | > 30 µM (inactive) | 0.119 µM | > 30 µM (inactive) | > 30 µM (inactive) | > 30 µM (inactive) | > 30 µM (inactive)
CO[C@H]1C[C@@H]2CC[C@@H](C)[C@@](O)(O2)C(=O)C(=O)N2CCCC[C@H]2C(=O)O[C@H]([C@H](C)C[C@@H]2CC[C@@H](OP(C)(C)=O)[C@H](OC)C2)CC(=O)[C@H](C)/C=C(\C)[C@@H](O)[C@@H](OC)C(=O)[C@H](C)C[C@H](C)/C=C/C=C/C=C/1C [RIDAFOROLIMUS] | > 30 µM (inactive) | > 30 µM (inactive) | > 30 µM (inactive) | > 30 µM (inactive) | > 30 µM (inactive) | > 30 µM (inactive)
Cc1nc(NC(=O)N2CCC[C@H]2C(N)=O)sc1-c1ccnc(C(C)(C)C(F)(F)F)c1 [ALPELISIB] | > 30 µM (inactive) | > 30 µM (inactive) | > 30 µM (inactive) | > 30 µM (inactive) | > 30 µM (inactive) | > 30 µM (inactive)
CCCCCCCCCCCCCCCCCCOP(=O)([O-])OC1CC[N+](C)(C)CC1 [PERIFOSINE] | > 30 µM (inactive) | > 30 µM (inactive) | > 30 µM (inactive) | > 30 µM (inactive) | > 30 µM (inactive) | > 30 µM (inactive)
COc1ncc(-c2ccc3nccc(-c4ccnnc4)c3c2)cc1NS(=O)(=O)c1ccc(F)cc1F [OMIPALISIB] | > 30 µM (inactive) | > 30 µM (inactive) | > 30 µM (inactive) | > 30 µM (inactive) | > 30 µM (inactive) | > 30 µM (inactive)
Cc1cnc(NC(=O)Nc2cc(Br)c(C)cc2OC[C@@H]2CNCCO2)cn1 [RABUSERTIB] | > 30 µM (inactive) | > 30 µM (inactive) | > 30 µM (inactive) | > 30 µM (inactive) | > 30 µM (inactive) | > 30 µM (inactive)
